In one experiment the test system is Breast cancer cells. Kind of experiment: Cancer cell line growth inhibition (SRB assay). Type of experiment: cell-based. The following applies: Homo sapiens; MDA-MB-468; read-out: Cancer Cell Line GI50 Range MDA-MB-468. For orientation: In SRB staining, fixed cells bind dye roughly in proportion to their protein.
The subject of experiment [1] is ovarian cancer cells (PA-1). Description: Cancer cell line growth inhibition (SRB assay). The note with it: Homo sapiens, PA-1; read-out: Cancer Cell Line GI50 Range PA-1. Type of experiment: cell-based.
The next experiment concerns the target T1, human TTK (Homo sapiens, UniProt P33981).
T1 construct: amino terminal GST fusion of full length human TTK; purchased Invitrogen
T1 sequence (P33981 1-857): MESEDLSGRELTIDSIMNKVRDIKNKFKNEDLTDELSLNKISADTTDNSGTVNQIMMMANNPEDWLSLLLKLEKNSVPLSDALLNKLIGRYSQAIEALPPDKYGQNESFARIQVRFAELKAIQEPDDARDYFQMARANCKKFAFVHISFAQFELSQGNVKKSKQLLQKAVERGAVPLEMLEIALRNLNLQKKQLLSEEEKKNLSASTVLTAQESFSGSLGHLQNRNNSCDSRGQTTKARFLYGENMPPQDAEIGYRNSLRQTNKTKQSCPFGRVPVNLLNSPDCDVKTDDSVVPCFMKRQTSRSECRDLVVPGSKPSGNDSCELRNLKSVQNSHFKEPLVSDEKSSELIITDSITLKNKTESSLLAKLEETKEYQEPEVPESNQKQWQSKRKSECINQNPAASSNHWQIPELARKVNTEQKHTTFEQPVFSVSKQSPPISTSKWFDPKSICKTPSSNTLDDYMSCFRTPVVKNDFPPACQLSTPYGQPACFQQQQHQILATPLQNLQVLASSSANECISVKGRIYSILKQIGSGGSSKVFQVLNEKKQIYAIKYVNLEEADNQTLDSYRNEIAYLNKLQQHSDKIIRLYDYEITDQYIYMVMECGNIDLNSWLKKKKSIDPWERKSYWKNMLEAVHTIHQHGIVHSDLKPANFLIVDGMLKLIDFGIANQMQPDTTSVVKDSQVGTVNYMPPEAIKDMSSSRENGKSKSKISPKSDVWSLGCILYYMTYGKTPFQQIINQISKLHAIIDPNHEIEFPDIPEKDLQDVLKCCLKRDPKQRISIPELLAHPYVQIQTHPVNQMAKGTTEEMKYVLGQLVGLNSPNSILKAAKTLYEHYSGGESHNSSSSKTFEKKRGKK
Kind of experiment: TTK inhibition assay (indirect ELISA). The experiment is classed as biochemical. The following applies: read-out: TTK IC50 Range. Background: In an ELISA, binding on a coated surface is turned into a signal by an enzyme label.

In experiment [2] the test system is colon cancer cells (HCT116). Description: Cancer cell line growth inhibition (SRB assay). The experiment is classed as cell-based. The following applies: Homo sapiens, HCT-116; read-out: Cancer Cell Line GI50 Range HCT116.

Structures are written as SMILES.

These results are taken from patent publication US9580390B2, “Indazole compounds as kinase inhibitors and method of treating cancer with same” (University Health Network, priority 2011, dated 2017).

Experimental for human TTK: Active TTK was purchased from Invitrogen as an amino terminal GST fusion of full length human TTK. Amino terminal 6 histidine, sumo tagged human TTK (residues 1-275) was expressed in E. coli, and purified to >95% homogeneity by Ni^2+ agarose, gel filtration, and ion exchange chromatography.
TTK activity was measured using an indirect ELISA detection system. GST-TTK (0.68 nM) was incubated in the presence of 16 μM ATP (Sigma cat# A7699), 50 mM Hepes pH 7.2, 1 mM EGTA, 10 mM MgCl2, and 0.1% Pluronic in a 96 well microtitre plate pre-coated with amino terminal 6 histidine, sumo tagged TTK (amino acid residues 1-275). The reaction was allowed to proceed for 30 minutes, followed by 5 washes of the plate with Wash Buffer (phosphate buffered saline supplemented with 0.2% Tween 20), and incubation for 30 minutes with a 1:3000 dilution of primary antibody (Cell Signaling cat# 9381). The plate was washed 5 times with Wash Buffer, incubated for 30 minutes in the presence of secondary antibody coupled to horse radish peroxidase (BioRad cat# 1721019, 1:3000 concentration), washed an additional 5 times with Wash Buffer, and incubated in the presence of TMB substrate (Sigma cat# T0440). The colourimetric reaction was allowed to continue for 5 minutes, followed by addition of stop solution (0.5 N sulphuric acid), and quantified by detection at 450 nm with either a monochromatic or filter based plate reader (Molecular Devices M5 or Beckman DTX880, respectively).
Compounds were pre-incubated in the presence of enzyme for 5 minutes prior to addition of ATP and the activity remaining quantified using the above described activity assay. The % Inhibition of a compound was determined using the following formula: % Inhibition=100×(1−(experimental value−background value)/(high activity control−background value)). The IC50 value was determined using a non-linear 4 point logistic curve fit (XLfit4, IDBS) with the formula: (A+(B/(1+((x/C)^D)))), where A=background value, B=range, C=inflection point, D=curve fit parameter.

For `Cn1ccc(=O)c2cc(-c3n[nH]c4ccc(C(=O)N[C@H](c5ccccn5)C5CCCC5)cc34)ccc21` [Example A240, (S)-N-(cyclopentyl(pyridin-2-yl)methyl)-3-(1-methyl-4-oxo-1,4-dihydroquinolin-6-yl)-1H-indazole-5-carboxamide], the 50% growth inhibitory concentration (GI50) (in the experiment on Breast cancer cells; in experiment [1]; in experiment [2]) was more than 0.5 µM each time. The concentration for half-maximal inhibition (IC50) at human TTK is less than 0.1 µM.

On to `CC(C)[C@H](NC(=O)c1ccc2[nH]nc(-c3ccc4c(c3)C(=O)CC3(CN(C)C3)O4)c2c1)c1ccccc1Cl` [Example A255, (S)-N-(1-(2-chlorophenyl)-2-methylpropyl)-3-(1-methyl-4′-oxospiro[azetidine-3,2′-chroman]-6′-yl)-1H-indazole-5-carboxamide], for which the GI50 (with Breast cancer cells; in experiment [1]; in experiment [2]) was 0.1 to 0.5 µM in each case. The IC50 on human TTK is less than 0.1 µM.

Take `Cc1cc(=O)n(C)c2ccc(-c3n[nH]c4ccc(C(=O)N[C@H](c5ccccn5)C5CC5)cc34)cc12` [Example A238]: the GI50 in the experiment on Breast cancer cells is more than 0.5 µM; in experiment [1], 0.1 to 0.5 µM; in experiment [2], 0.1 to 0.5 µM. For the same compound, the 50% inhibitory concentration (IC50) on human TTK was less than 0.1 µM.

With `CC1(C)CC(=O)c2cc(-c3n[nH]c4ccc(C(=O)NCC5(N6CCOCC6)CCCCC5)cc34)ccc2O1` [Example A490, 3-(2,2-dimethyl-4-oxochroman-6-yl)-N-((1-morpholinocyclohexyl)methyl)-1H-indazole-5-carboxamide], the GI50 (in the experiment on Breast cancer cells; in experiment [1]; in experiment [2]) was more than 0.5 µM each time. Moreover, the IC50 at human TTK lay within 0.1 to 0.5 µM.

In the case of `CN1CCC2(CC1)CC(=O)c1cc(-c3n[nH]c4ccc(C(=O)N[C@H](c5ccccc5)C5CC5)cc34)ccc1O2` [Example A251, (S)-N-(cyclopropyl(phenyl)methyl)-3-(1′-methyl-4-oxospiro[chroman-2,4′-piperidin]-6-yl)-1H-indazole-5-carboxamide], the GI50 (in the experiment on Breast cancer cells; in experiment [1]; in experiment [2]) was 0.1 to 0.5 µM each time. Also, the concentration for half-maximal inhibition (IC50) on human TTK was less than 0.1 µM.

Turning to `CCC(CC)C(NC(=O)c1ccc2[nH]nc(-c3ccc(O[C@H]4C[C@H]5CC[C@@H](C4)N5C4COC4)cc3)c2c1)c1ccccn1` (stereo partly drawn) [Example A341, N-(2-ethyl-1-(pyridin-2-yl)butyl)-3-(4-(((1R,3R,5S)-8-(oxetan-3-yl)-8-azabicyclo[3.2.1]octan-3-yl)oxy)phenyl)-1H-indazole-5-carboxamide], the GI50 (in the experiment with Breast cancer cells; in experiment [1]; in experiment [2]) was 0.1 to 0.5 µM throughout. Moreover, at human TTK, the IC50 was less than 0.1 µM.

Turning to `CC(C)CC(NC(=O)c1ccc2[nH]nc(-c3ccc(O[C@H]4C[C@H]5CC[C@@H](C4)N5C4COC4)cc3)c2c1)c1ccccc1` (stereo partly drawn) [Example A338, N-(3-methyl-1-phenylbutyl)-3-(4-(((1R,3R,5S)-8-(oxetan-3-yl)-8-azabicyclo[3.2.1]octan-3-yl)oxy)phenyl)-1H-indazole-5-carboxamide], the GI50 (in the experiment with Breast cancer cells; in experiment [1]; in experiment [2]) was 0.1 to 0.5 µM in each case. The half-maximal inhibitory concentration (IC50) on human TTK was less than 0.1 µM.

As to `O=C(N[C@H](c1ccccn1)C1CCCC1)c1ccc2[nH]nc(-c3ccc(OC4CCN(C[C@@H](O)C(F)(F)F)CC4)cc3)c2c1` [Example A229, N((S)-cyclopentyl(pyridin-2-yl)methyl)-3-(4-((1-((R)-3,3,3-trifluoro-2-hydroxypropyl)piperidin-4-yl)oxy)phenyl)-1H-indazole-5-carboxamide], the concentration for 50% growth inhibition (GI50) (in the experiment on Breast cancer cells; in experiment [1]; in experiment [2]) was 0.1 to 0.5 µM each time. Moreover, the IC50 at human TTK is less than 0.1 µM.

Consider `CN1C2CCC1CC(Oc1ccc(-c3n[nH]c4ccc(C(=O)N[C@H](c5ccccn5)C5CCCC5)cc34)cc1)C2` (stereo partly drawn) [Example A252, N-((S)-cyclopentyl(pyridin-2-yl)methyl)-3-(4-(((1R,3R,5S)-8-methyl-8-azabicyclo[3.2.1]octan-3-yl)oxy)phenyl)-1H-indazole-5-carboxamide], for which the GI50 (with Breast cancer cells; in experiment [1]; in experiment [2]) was less than 0.1 µM throughout. For the same compound, the IC50 on human TTK was less than 0.1 µM.

By GI50 is commonly meant the concentration that inhibits growth by half. In general, IC50 refers to the concentration needed to halve the response being measured.
